Measurements taken from US20140088006A1, “Stem Cell Mobilization and Tissue Repair and Regeneration” (Wellstat Therapeutics Corporation, priority 2011, published 2014).
Where “and” joins values, the source holds several entries; their conditions need not be identical. Equal entries are not always repeated. No end group written: not given here.

Assays:
[1] = test system: white blood cells in peripheral blood; assay: White blood cell number after 4 daily subcutaneous injections; format: in vivo, C57Bl/6 male mice; set-up: White blood cell number in peripheral blood: unit not given here; conditions: for White blood cell number in peripheral blood: 1 hr after injection
Description: This example is based on a protocol for a 4-day course of once-daily Compound X injections into C57Bl/6 male mice similar to G-CSF. Two effective dose levels of Compound X were found previously to mobilize HSC 1 hr after single injection and were selected for this experiment. Four-month old C57Bl/6 male mice (Jackson Laboratories) were subcutaneously injected with 0.9% saline, 125 μg/kg Compound X or 250 μg/kg Compound X on days 1, 2, 3 and 4 as described in Table 4. Each day, one-hour post injections, peripheral blood from 3 mice per group was harvested from the orbital plexus into EDTA-containing tubes. On day 4, a femur and spleen were also removed from mice to assess by FACS whether any toxicity aroused from repeated injections of Compound X.
As in the previous example to determine mobilization of colony-forming cells out of the bone marrow, mononuclear cells from peripheral blood were plated into MethoCult 3434 media (Stem Cell Technologies). Briefly, after white blood cell counting, the remaining peripheral blood was diluted (1:1, v/v) with 0.9% saline (APP Pharmaceutical) and layered (2:1, v/v) onto 1-Step™1.077 A (Accurate Chemicals) in 15-ml centrifuge tubes. Cells were centrifuged at 600×g for 20 min at room temperature. The mononuclear cells were harvested from the interface between the plasma layer and the 1-Step™ A solution using a 1-ml syringe and blunt-end needle. The cells were transferred to 15-ml centrifuge tubes and washed twice in 1×PBS. Cells were resuspended in 1 ml of IMDM and cell counts were obtained using the Coulter counter. Cells were placed into 35-mm Petri dishes at 200,000 cells per dish with 5 dishes per group. Cells incubated for 10 days in a 37° C. and 5% CO2 humidified incubator. CFU colonies were then scored using an inverted microscope—CFU-GM detected on day 7 and CFU-GEMM—on day 10. Data presented in Tables 7, 8 and 9, FIGS. 3 and 4.

[2] = test system: CFU-GEMM / CFU-GM colony-forming cells; assay: CFU colony assay of peripheral blood on day 7 after 5 daily subcutaneous injections; format: in vivo, DBA/2J male mice
Description: Mobilization of hematopoietic stem and progenitor cells from bone marrow into peripheral blood is important for tissue regeneration. However, this physiological mechanism is often insufficient, including in elderly patients and people with diabetes. In order to look at the ability of Compound X mobilized stem cells to mediate tissue regeneration, multiple in vivo injections of Compound X were administered. A group of DBA/2J male mice were injected subcutaneously for 5 consecutive days with 250 ug/kg Compound X in Saline. Another group of mice received injections of vehicle only. Peripheral blood from 3 mice from each of these groups was then harvested from the orbital plexus at 7 days post initial injection. Blood was also harvested and pooled from 3 naïve mice to serve as an additional control group. To determine mobilization of pluripotent colony-forming cells from bone marrow into peripheral blood, mononuclear cells obtained from blood were plated into MethoCult 3434 media (Stem Cell Technologies 03434). Briefly, peripheral blood from three mice was pooled, diluted (1:1, v/v) with 0.9% saline (APP Pharmaceutical) and layered (2:1, v/v) onto 1-Step™1.077 A (Accurate Chemicals AN224510) in 15-ml centrifuge tubes. Cells were centrifuged at 600×g for 20 min at room temperature. The mononuclear cells were harvested from the interface between the plasma layer and the 1-Step™ A solution using a 1-ml syringe and 16G blunt-end needle (Stem Cell Technologies 28120). The cells were transferred to 15-ml centrifuge tubes and washed twice in 1×PBS. The cells were placed into 35-mm Petri dishes at 100,000 cells per dish with 5 dishes per group. Cells incubated for 10 days in a 37° C. and 5% CO2 humidified incubator. CFU-GM colonies consisting of granulocytic and monocytic cells and CFU-GEMM colonies representing mixed cell populations of granulocytes, macrophages and erythroid cells were then scored using an inverted microscope. Blood was taken at Zeitgeber Time 4 (ZT4) which corresponded to the physiological time of cell emigration from bone marrow—the circadian stem cell mobilization peak.

[3] = Blood glucose before and 7 weeks after treatment in wound healing study; format: in vivo, db/db mice; conditions: 4 days i.v. treatment course; 7 weeks after the treatment
Description: Note, that mice were taken for the wound healing experiment when their glucose level was high; baseline glucose was measured by glucometer from tail bleed one day before the wound healing experiment next glucose measurement was taken at the end of the study, 7 weeks after the treatment with intravenous injections of Compound X or Saline.

[4] = Glucose level in db/db mice treated for 5 weeks; format: in vivo; conditions: for Glucose level in peripheral blood (nonfasting): 5 mg/kg s.c./i.v. for 5 weeks, individual mice; for Glucose level in peripheral blood, group mean: 5 mg/kg, high values set to 600 mg/dL
Description: Homozygous Leptin receptor-deficient diabetic db/db male mice—BKS.Cg-Dock7m+/+Leprdb/J (Jackson Laboratories, stock #000642) become obese at 3-4 weeks of age. Elevation of plasma insulin usually occurs at 10-14 days and elevation of blood glucose at 6-8 weeks of age. We examined the effects of Compound X on the onset of hyperglycemia in db/db mice. Continuous Compound X treatments were performed during 5 weeks.
At day 0, homozygous 7-week-old female db/db mice were divided into 2 experimental groups (n=10); both groups received subcutaneous injections for 5 consecutive days: Group 1 received 0.9% saline and group 2 received 5 mg/kg Compound X. The following week mice received intravenous injections for 4 consecutive days. The next two weeks mice received subcutaneous injections 3 times per week and the last week of treatment was given intravenously 3 times per week.
Nonfasting blood glucose levels were measured weekly from tail bleeds with a handheld glucometer. Animal body weights were taken throughout the course of the study.
At the end of experiment, serum from blood was obtained from the retro-orbital sinus after an overnight fast.

[5] = 250 ug/kg s.c. 5 consecutive days, day 7
[6] = 250 ug/kg s.c. 5 consecutive days, day 7, individual dishes
[7] = 250 ug/kg/day for 5 days, day 7
[8] = DBA mice, multiple s.c. 250 ug/kg

FPHFDLSHGSAQV [Compound X, tridecapeptide that acts on stem cells]
White blood cell number in peripheral blood ([1]; 125 μg/kg s.c. daily, Day 1): 7.4
White blood cell number in peripheral blood ([1]; 125 μg/kg s.c. daily, Day 2): 8.8
White blood cell number in peripheral blood ([1]; 125 μg/kg s.c. daily, Day 3): 6.0
White blood cell number in peripheral blood ([1]; 125 μg/kg s.c. daily, Day 4): 8.6
White blood cell number in peripheral blood ([1]; 250 μg/kg s.c. daily, Day 1): 8.6
White blood cell number in peripheral blood ([1]; 250 μg/kg s.c. daily, Day 2): 8.2
White blood cell number in peripheral blood ([1]; 250 μg/kg s.c. daily, Day 3): 10.2
White blood cell number in peripheral blood ([1]; 250 μg/kg s.c. daily, Day 4): 9.2
White blood cell number ([1]; multiple daily injections, 125 and 250 μg/kg): did not change
CFU-GEMM AVG [2, 5]: 11.4 colonies/100,000 MNCs
CFU-GEMM Average [2, 5]: 79.8 Colonies/ml of Peripheral Blood
CFU-GM AVG [2, 5]: 12.4 colonies/100,000 MNCs
CFU-GM Average [2, 5]: 86.8 Colonies/ml of Peripheral Blood
CFU-GEMM Colony # [2, 6]: 8 colonies/100,000 MNCs (2×) and 13 colonies/100,000 MNCs and 12 colonies/100,000 MNCs and 16 colonies/100,000 MNCs
CFU-GM Colony # [2, 6]: 13 colonies/100,000 MNCs (2×) and 14 colonies/100,000 MNCs (2×) and 8 colonies/100,000 MNCs
number of circulating CFU-GM [2, 7]: did not change
total CFU-GEMM number in circulation vs naïve or vehicle mice [2, 7]: 3 times higher
increase in CFU-GEMM number per ml of blood vs saline control group [2, 8]: 3.3 fold
increase in CFU-GEMM number per ml of blood vs untreated control group [2, 8]: 3.8 fold
glucose level in blood [3]: decreased glucose level
Glucose level in peripheral blood (nonfasting) ([4]; Week 1): 160 mg/dL and 121 mg/dL and 122 mg/dL and 235 mg/dL and 117 mg/dL and 178 mg/dL and 248 mg/dL and 119 mg/dL and 181 mg/dL and 194 mg/dL
Glucose level in peripheral blood (nonfasting) ([4]; Week 2): 481 mg/dL and 377 mg/dL and 177 mg/dL and 472 mg/dL and 273 mg/dL and 452 mg/dL and 500 mg/dL and 189 mg/dL and 502 mg/dL and 430 mg/dL
Glucose level in peripheral blood (nonfasting) ([4]; Week 3): 541 mg/dL (2×) and 447 mg/dL and 271 mg/dL and HI (High/Hi = ≧600 mg/dL, the maximum possible glucometer reading) and 546 mg/dL and 496 mg/dL and 474 mg/dL and 267 mg/dL and 463 mg/dL
Glucose level in peripheral blood (nonfasting) ([4]; Week 4): 398 mg/dL and 416 mg/dL and 206 mg/dL and 599 mg/dL and 440 mg/dL and 458 mg/dL and 591 mg/dL and 257 mg/dL and HI (High/Hi = ≧600 mg/dL, the maximum possible glucometer reading) and 549 mg/dL
Glucose level in peripheral blood (nonfasting) ([4]; Week 5): 481 mg/dL and 443 mg/dL and 256 mg/dL and 527 mg/dL and 525 mg/dL and 582 mg/dL and 588 mg/dL and 467 mg/dL and HI (High/Hi = ≧600 mg/dL, the maximum possible glucometer reading) (2×)
Glucose level in peripheral blood (nonfasting) ([4]; Week 6): 400 mg/dL and 541 mg/dL and 265 mg/dL and 537 mg/dL and 576 mg/dL and HI (High/Hi = ≧600 mg/dL, the maximum possible glucometer reading) (4×) and 457 mg/dL
Glucose level in peripheral blood, group mean ([4]; Week 1): 168 ± 15 mg/dL
Glucose level in peripheral blood, group mean ([4]; Week 2): 385 ± 40 mg/dL
Glucose level in peripheral blood, group mean ([4]; Week 3): 465 ± 36 mg/dL
Glucose level in peripheral blood, group mean ([4]; Week 4): 451 ± 44 mg/dL
Glucose level in peripheral blood, group mean ([4]; Week 5): 506 ± 33 mg/dL
Glucose level in peripheral blood, group mean ([4]; Week 6): 517 ± 35 mg/dL
nonfasting glucose level compared to Saline control ([4]; at all timepoints): decreased glucose level
mice with lower than 200 mg/dL fasting serum glucose ([4]; end of the 5-week study): 2 mice
mice with overnight fasting serum glucose <300 mg/dL ([4]; end of the 5-week study, vehicle 3/10): 7/10
